Test results taken from the supplement of paper PMC4862054.

Experiments:
Details in all cases: incubation time: 72 h
CAL-148 [1] = experiment: normalised response (% of control), CellTiter-Glo; higher = more viable cells (100 = DMSO, 0 = benzethonium chloride kill control)
Protocol: (§1)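 DSRT, 72 h incubation, CellTox Green / CellTiter-Glo readout. Signal is normalised to DMSO and benzethonium chloride controls. Value is the normalised response at dose 3.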

BT-549 [2] = experiment: as above
Protocol: as §1

DU-4475 [3] = experiment: as above
Protocol: as §1

HCC1599 [4] = experiment: as above
Protocol: as §1

CAL-120 [5] = experiment: as above
Protocol: as §1

MDA-MB-436 [6] = experiment: as above
Protocol: as §1

Hs578T [7] = experiment: as above
Protocol: as §1

BT-474 [8] = experiment: as above
Protocol: as §1

SK-BR-3 = experiment: as above
Protocol: as §1

HCC1143 [9] = experiment: as above
Protocol: as §1

CAL-51 [10] = experiment: as above
Protocol: as §1

HCC1937 [11] = experiment: as above
Protocol: as §1

MFM-223 [12] = experiment: as above
Protocol: as §1

MCF-10A [13] = experiment: as above
Protocol: as §1

MDA-MB-453 [14] = experiment: as above
Protocol: as §1

MDA-MB-231 [15] = experiment: as above
Protocol: as §1

MDA-MB-468 [16] = experiment: as above
Protocol: as §1

HDQ-P1 [17] = experiment: as above
Protocol: as §1

CAL-85-1 [18] = experiment: as above
Protocol: as §1

BT-549 [19] = experiment: normalised response (% of control), CellTox Green; higher = less cell death (100 = DMSO, 0 = benzethonium chloride kill control)
In short: (§2)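 The table gives the normalised signal for a single concentration in each entry. Breast cancer cell lines were seeded (20 µl suspension) into 384-well plates holding compound at 5 concentrations in 10-fold steps over a compound-specific 10,000-fold range and incubated 72 h, then read for CellTox Green fluorescence (485/520 nm) and CellTiter-Glo luminescence. Normalisation on each plate used 0.1 % DMSO (100) and a positive kill control (0).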

DU-4475 [20] = experiment: as above
In short: as §2

HCC1599 [21] = experiment: as above
In short: as §2

CAL-120 [22] = experiment: as above
In short: as §2

MDA-MB-436 [23] = experiment: as above
In short: as §2

Hs578T [24] = experiment: as above
In short: as §2

BT-474 [25] = experiment: as above
In short: as §2

HCC1143 [26] = experiment: as above
In short: as §2

CAL-51 [27] = experiment: as above
In short: as §2

HCC1937 [28] = experiment: as above
In short: as §2

MFM-223 [29] = experiment: as above
In short: as §2

MCF-10A [30] = experiment: as above
In short: as §2

MDA-MB-453 [31] = experiment: as above
In short: as §2

MDA-MB-231 [32] = experiment: as above
In short: as §2

MDA-MB-468 [33] = experiment: as above
In short: as §2

CAL-85-1 [34] = experiment: as above
In short: as §2

CAL-148 [35] = experiment: as above
In short: as §2

HDQ-P1 [36] = experiment: as above
In short: as §2

Compound	normalised response (CAL-148 [1])	normalised response (BT-549 [2])	normalised response (DU-4475 [3])	normalised response (HCC1599 [4])	normalised response (CAL-120 [5])	normalised response (MDA-MB-436 [6])	normalised response (Hs578T [7])	normalised response (BT-474 [8])	normalised response (SK-BR-3)	normalised response (HCC1143 [9])	normalised response (CAL-51 [10])	normalised response (HCC1937 [11])	normalised response (MFM-223 [12])	normalised response (MCF-10A [13])	normalised response (MDA-MB-453 [14])	normalised response (MDA-MB-231 [15])	normalised response (MDA-MB-468 [16])	normalised response (HDQ-P1 [17])	normalised response (CAL-85-1 [18])	normalised response (BT-549 [19])	normalised response (DU-4475 [20])	normalised response (HCC1599 [21])	normalised response (CAL-120 [22])	normalised response (MDA-MB-436 [23])	normalised response (Hs578T [24])	normalised response (BT-474 [25])	normalised response (HCC1143 [26])	normalised response (CAL-51 [27])	normalised response (HCC1937 [28])	normalised response (MFM-223 [29])	normalised response (MCF-10A [30])	normalised response (MDA-MB-453 [31])	normalised response (MDA-MB-231 [32])	normalised response (MDA-MB-468 [33])	normalised response (CAL-85-1 [34])	normalised response (CAL-148 [35])	normalised response (HDQ-P1 [36])
O=c1[nH]c(=O)n([C@H]2C[C@H](O)[C@@H](CO)O2)cc1F [Floxuridine] (100 nM)	110%	94.4%	103%	66.8%	99.3%	74.6%	28%	99.3%	71.4%	103%	57.2%	75.4%	113%	109%	116%	100%	86.1%	90.8%	57%	114%	107%	113%	107%	115%	103%	102%	63.4%	95.6%	51.1%	98.5%	97.8%	104%	115%	96.2%	87.3%	–	–
COC1=C2C[C@@H](C)C[C@H](OC)[C@H](O)[C@@H](C)/C=C(\C)[C@H](OC(N)=O)[C@@H](OC)/C=C\C=C(/C)C(=O)NC(=CC1=O)C2=O [Geldanamycin] (100 nM)	118%	96.5%	106%	109%	109%	107%	107%	102%	105%	104%	84.7%	101%	115%	103%	113%	113%	106%	102%	108%	99.4%	104%	106%	99.7%	–	–	100%	76.5%	96%	111%	95.2%	95.5%	106%	103%	–	96.5%	106%	106%
Cn1c(=O)c(F)c(Nc2ccc(I)cc2F)c2c(=O)n(C[C@@H](O)CO)cnc21 [TAK-733] (10 nM)	97.2%	104%	38.9%	82.3%	97.6%	104%	96.8%	89.8%	107%	92.6%	84.7%	88%	102%	53.8%	115%	90.3%	92.6%	74.5%	93.7%	105%	95.9%	119%	103%	114%	71.8%	103%	118%	104%	–	104%	90.9%	112%	99.2%	113%	104%	107%	-40.4%
CC(C)(C)c1cc(NC(=O)Nc2ccc(-c3cn4c(n3)sc3cc(OCCN5CCOCC5)ccc34)cc2)no1 [Quizartinib] (10 nM)	103%	108%	97.9%	89%	108%	109%	102%	109%	104%	104%	71.4%	98%	105%	105%	101%	108%	103%	101%	103%	104%	99.3%	117%	94.6%	95.2%	107%	97.6%	125%	89.8%	–	102%	106%	93.9%	99.1%	137%	107%	108%	92.7%
Nc1nccc(-c2c(-c3ccc(F)cc3)ncn2C2CCCCC2)n1 (100 nM)	105%	98.3%	101%	102%	105%	113%	104%	99.9%	97.3%	112%	84.4%	102%	102%	105%	104%	106%	96.2%	95.2%	98.9%	93.9%	107%	98.9%	102%	81.8%	86.7%	103%	100%	94.3%	78.4%	104%	110%	98.8%	112%	–	97.7%	101%	104%
